This is an account of results in patent publication US11351178B2, “Selective HDAC6 inhibitors” (ITALFARMACO S.P.A., priority 2017, dated 2022).

The target in this experiment is T1, recombinant human HDAC6 (Homo sapiens, UniProt Q9UBN7).
T1 sequence (Q9UBN7 1-1215): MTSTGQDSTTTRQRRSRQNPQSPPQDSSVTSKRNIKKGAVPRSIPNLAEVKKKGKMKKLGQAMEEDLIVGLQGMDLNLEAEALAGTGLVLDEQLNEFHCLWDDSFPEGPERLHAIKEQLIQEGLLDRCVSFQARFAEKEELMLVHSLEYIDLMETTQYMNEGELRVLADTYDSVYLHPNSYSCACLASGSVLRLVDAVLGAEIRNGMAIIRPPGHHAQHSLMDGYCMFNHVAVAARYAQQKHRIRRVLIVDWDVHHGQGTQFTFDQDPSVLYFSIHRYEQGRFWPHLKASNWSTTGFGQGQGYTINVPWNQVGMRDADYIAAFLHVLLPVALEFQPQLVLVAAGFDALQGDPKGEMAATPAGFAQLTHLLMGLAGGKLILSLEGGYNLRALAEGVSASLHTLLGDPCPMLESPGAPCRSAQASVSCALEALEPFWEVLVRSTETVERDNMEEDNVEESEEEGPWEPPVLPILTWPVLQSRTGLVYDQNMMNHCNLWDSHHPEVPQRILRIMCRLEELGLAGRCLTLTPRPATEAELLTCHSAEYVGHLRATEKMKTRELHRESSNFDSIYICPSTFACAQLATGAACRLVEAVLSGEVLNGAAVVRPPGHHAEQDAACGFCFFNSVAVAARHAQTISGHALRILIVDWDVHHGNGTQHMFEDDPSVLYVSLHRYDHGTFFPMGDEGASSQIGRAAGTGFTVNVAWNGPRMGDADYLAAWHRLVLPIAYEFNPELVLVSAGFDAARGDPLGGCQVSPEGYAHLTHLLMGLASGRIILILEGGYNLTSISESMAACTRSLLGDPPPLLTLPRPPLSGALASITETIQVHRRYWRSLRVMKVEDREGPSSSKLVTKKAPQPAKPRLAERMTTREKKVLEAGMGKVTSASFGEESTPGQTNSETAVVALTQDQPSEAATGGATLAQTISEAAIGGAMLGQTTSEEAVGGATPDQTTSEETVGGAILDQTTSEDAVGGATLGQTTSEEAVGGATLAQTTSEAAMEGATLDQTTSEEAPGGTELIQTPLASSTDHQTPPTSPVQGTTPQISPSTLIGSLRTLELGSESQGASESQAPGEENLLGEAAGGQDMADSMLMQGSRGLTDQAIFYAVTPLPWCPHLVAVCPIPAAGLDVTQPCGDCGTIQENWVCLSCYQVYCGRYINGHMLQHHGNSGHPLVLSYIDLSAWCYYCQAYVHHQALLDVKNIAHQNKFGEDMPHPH
As to the kind of experiment: Enzymatic screening on recombinant human HDAC6. It counts as biochemical. Conditions: Table 2; read-out: HDAC6 IC50. As to the method:
Enzymatic activity on recombinant human HDAC6 and HDAC3 was evaluated (Table 2) for each synthesized compound.
After a period of incubation at 30° C. (incubation times vary for different isoforms and are shown in table 1) 25 μL of solution containing the substrate were added. As substrate, FLUOR DE LYS® deacetylase substrate (Enzo Life Sciences, cat #BML-K1104, FdL), FLUOR DE LYS®-Green substrate (Enzo Life Sciences, cat #BML-K1572 FdL_G) and trifluoroacetyl-L-lysine (Tfal)-2× concentrated solution in 25 mM Tris-HCl, pH 8, 130 mM NaCl 0.05% Tween-20 10% glycerol) were used. Following a reaction period at 30° C.

SMILES strings stand for the structures.

As a reminder, the IC50 is the midpoint of a concentration-inhibition curve. For the molecule `Cc1ccc(-c2nnn(Cc3ccc(C(=O)NO)cc3)n2)s1` [comp. 41, 4-[[5-(5-methyl-2-thienyl)tetrazol-2-yl]methyl]benzenecarbohydroxamic acid], the IC50 worked out at 4 nM.

As for `O=C(NO)c1ccc(Cn2nnc(-c3ccc(Cl)s3)n2)cc1` [comp. 32, 4-[[5-(5-chloro-2-thienyl)tetrazol-2-yl]methyl]benzenecarbohydroxamic acid], the IC50 was determined as 6 nM.

Consider `O=C(NO)c1ccc(Cn2nnc(-c3ccc(F)cc3)n2)cc1` [comp. 34, 4-[[5-(4-fluorophenyl)tetrazol-2-yl]methyl]benzenecarbohydroxamic acid], for which the IC50 is 7 nM.

Consider `Cn1c(Sc2c(F)cc(C(=O)NO)cc2F)nnc1-c1cc2ccccc2cn1` [comp. 148, 3,5-difluoro-4-[[5-(3-isoquinolyl)-4-methyl-1,2,4-triazol-3-yl]sulfanyl]benzenecarbohydroxamic acid], for which the IC50 stood at 6 nM.

Consider `CN(C)c1ccc(-c2nnc(Sc3ccc(C(=O)NO)cc3)n2C)cc1` [comp. 73, 4-[[5-[4-(dimethylamino)phenyl]-4-methyl-1,2,4-triazol-3-yl]sulfanyl]benzenecarbohydroxamic acid], for which the IC50 was 8 nM.

Consider `O=C(NO)c1cc(F)c(Sc2nnc(-c3cccs3)n2Cc2ccccc2)c(F)c1` [comp. 143, 4-[[4-benzyl-5-(2-thienyl)-1,2,4-triazol-3-yl]sulfanyl]-3,5-difluoro-benzenecarbohydroxamic acid], for which the IC50 came to 25 nM.

Regarding `COc1ccc(-c2nnn(Cc3ccc(C(=O)NO)cc3)n2)cc1` [comp. 35, 4-[[5-(4-methoxyphenyl)tetrazol-2-yl]methyl]benzenecarbohydroxamic acid], the IC50 stood at 5 nM.

As to `O=C(NO)c1ccc(Cn2nnc(-c3ccc4ccccc4n3)n2)cc1` [comp. 90, 4-[[5-(2-quinolyl)tetrazol-2-yl]methyl]benzenecarbohydroxamic acid], the IC50 came to 20 nM.

With `O=C(NO)c1ccc(Nc2nnc(-c3ccccc3)o2)cc1` [comp. 60, 4-[(5-phenyl-1,3,4-oxadiazol-2-yl)amino]benzenecarbohydroxamic acid], the IC50 was determined as 136 nM.

On to `Cn1c(Sc2c(F)cc(C(=O)NO)cc2F)nnc1-c1scc2c1OCCO2` [comp. 118, 4-[[5-(2,3-dihydrothieno[3,4-b][1,4]dioxin-5-yl)-4-methyl-1,2,4-triazol-3-yl]sulfanyl]-3,5-difluoro-benzenecarbohydroxamic acid], for which the concentration for half-maximal inhibition (IC50) amounted to 6 nM.

`O=C(NO)c1ccc(Cn2nnnc2-c2ccco2)cc1` [comp. 86, 4-[[5-(2-furyl)tetrazol-1-yl]methyl]benzenecarbohydroxamic acid]: the half-inhibitory concentration (IC50) worked out at 39 nM.

Take `O=C(NO)c1cc(F)c(Sc2nnc(-c3cccs3)[nH]2)c(F)c1` [comp. 97, 3,5-difluoro-4-[[5-(2-thienyl)-4H-1,2,4-triazol-3-yl]sulfanyl]benzenecarbohydroxamic acid]: the IC50 is 51 nM.

With `O=C(NO)c1ccc(Nc2nnc(-c3cccc(S(=O)(=O)N4CCCC4)c3)o2)cc1` [comp. 63, 4-[[5-(3-pyrrolidin-1-ylsulfonylphenyl)-1,3,4-oxadiazol-2-yl]amino]benzenecarbohydroxamic acid], the IC50 was determined as 682 nM.

Turning to `O=C(NO)c1ccc(Cc2nnc(-c3ccc(S(=O)(=O)N4CCCC4)cc3)o2)cc1` [comp. 69, 4-[[5-(4-pyrrolidin-1-ylsulfonylphenyl)-1,3,4-oxadiazol-2-yl]methyl]benzenecarbohydroxamic acid], the IC50 came to 11 nM.

As to `O=C(NO)c1ccc(Cc2nnc(-c3cccc(S(=O)(=O)N4CCOCC4)c3)o2)cc1` [comp. 64, 4-[[5-(3-morpholinosulfonylphenyl)-1,3,4-oxadiazol-2-yl]methyl]benzenecarbohydroxamic acid], the 50% inhibitory concentration (IC50) amounted to 13 nM.

For the molecule `O=C(NO)c1ccc(Cn2nnnc2-c2ncccn2)cc1` [comp. 124, 4-[(5-pyrimidin-2-yltetrazol-1-yl)methyl]benzenecarbohydroxamic acid], the IC50 came out at 72 nM.

`O=C(NO)c1ccc(Cn2nnc(-c3ccc(C(F)(F)F)cn3)n2)cc1` [comp. 126, 4-[[5-[5-(trifluoromethyl)-2-pyridyl]tetrazol-2-yl]methyl]benzenecarbohydroxamic acid]: the IC50 came out at 86 nM.

Consider `O=C(NO)c1cc(F)c(Sc2nnc(-c3ccco3)n2Cc2ccccc2)c(F)c1` [comp. 142, 4-[[4-benzyl-5-(2-furyl)-1,2,4-triazol-3-yl]sulfanyl]-3,5-difluoro-benzenecarbohydroxamic acid], for which the IC50 is 20 nM.

In the case of `O=C(NO)c1ccc(Sc2nnc(Cc3ccccc3)n2-c2ccc(F)cc2)cc1` [comp. 27, 4-[[5-benzyl-4-(4-fluorophenyl)-1,2,4-triazol-3-yl]sulfanyl]benzenecarbohydroxamic acid;2,2,2-trifluoroacetic acid], the IC50 came out at 77 nM.

Regarding `O=C(NO)c1ccc(Cn2nnnc2-c2ncc(C(F)(F)F)cc2N2CCOCC2)cc1` [comp. 131, 4-[[5-[3-morpholino-5-(trifluoromethyl)-2-pyridyl]tetrazol-1-yl]methyl]benzenecarbohydroxamic acid], the IC50 was 57 nM.

Regarding `N[C@@H](Cc1cscn1)c1nc(Cc2ccc(C(=O)NO)cc2)no1` [comp. 48, (S)-4-((5-(1-amino-2-(thiazol-4-yl)ethyl)-1,2,4-oxadiazol-3-yl)methyl)-N-hydroxybenzamide 2,2,2-trifluoroacetate], the 50% inhibitory concentration (IC50) is 257 nM.

Regarding `O=C(NO)c1ccc(Sc2nc(C3CC3)n(-c3ccccc3)n2)cc1` [comp. 72, 4-[(5-cyclopropyl-1-phenyl-1,2,4-triazol-3-yl)sulfanyl]benzenecarbohydroxamic acid], the IC50 was determined as 162 nM.

In the case of `O=C(NO)c1ccc(Sc2nnc(-c3ccccc3)n2-c2ccccc2)cc1` [comp. 24, 4-[(4,5-diphenyl-1,2,4-triazol-3-yl)sulfanyl]benzenecarbohydroxamic acid], the IC50 is 56 nM.

With `COc1ccc(Cc2nnc(-c3ccc(C(=O)NO)cc3)o2)cc1OC` [comp. 26, 4-[5-[(3,4-dimethoxyphenyl)methyl]-1,3,4-oxadiazol-2-yl]benzenecarbohydroxamic acid], the IC50 was 258 nM.

As to `O=C(NO)c1ccc(Cn2nnc(-c3scc4c3OCCO4)n2)cc1` [comp. 43, 4-[[5-(2,3-dihydrothieno[3,4-b][1,4]dioxin-5-yl)tetrazol-2-yl]methyl]benzenecarbohydroxamic acid], the IC50 came to 3 nM.

For `O=C(NO)c1ccc(Cn2nnnc2-c2nccc3ccccc23)cc1` [comp. 88, 4-[[5-(1-isoquinolyl)tetrazol-1-yl]methyl]benzenecarbohydroxamic acid], the 50% inhibitory concentration (IC50) is 2 nM.

For the molecule `O=C(NO)c1cc(F)c(Cn2nnc(-c3ccc(C(F)(F)F)cn3)n2)c(F)c1` [comp. 128, 3,5-difluoro-4-[[5-[5-(trifluoromethyl)-2-pyridyl]tetrazol-2-yl]methyl]benzenecarbohydroxamic acid], the IC50 amounted to 45 nM.

Consider `O=C(NO)c1ccc(Cn2nnnc2Cc2ccccn2)cc1` [comp. 133, 4-[[5-(2-pyridylmethyl)tetrazol-1-yl]methyl]benzenecarbohydroxamic acid;2,2,2-trifluoroacetic acid], for which the concentration for half-maximal inhibition (IC50) stood at 283 nM.

Regarding `O=C(NO)c1ccc(Cn2nnc(Cc3ccccn3)n2)cc1` [comp. 132, 4-[[5-(2-pyridylmethyl)tetrazol-2-yl]methyl]benzenecarbohydroxamic acid;2,2,2-trifluoroacetic acid], the IC50 came out at 25 nM.

On to `O=C(NO)c1ccc(Cc2nc(-c3ccc(Cl)cc3)nn2Cc2ccccc2)cc1` [comp. 51, 4-[[2-benzyl-5-(4-chlorophenyl)-1,2,4-triazol-3-yl]methyl]benzenecarbohydroxamic acid], for which the IC50 was 368 nM.

Turning to `O=C(NO)c1cc(F)c(Cn2nnc(-c3cccc(S(F)(F)(F)(F)F)c3)n2)c(F)c1` [comp. 108, 3,5-difluoro-4-[[5-[3-(pentafluoro-lambda6-sulfanyl)phenyl]tetrazol-2-yl]methyl]benzenecarbohydroxamic acid], the IC50 worked out at 108 nM.
